The values below come from US10179780B2, “Azole benzene derivative and crystalline form thereof” (TEIJIN PHARMA LIMITED, priority 2014, dated 2019).

The test system of data set [1] is level of uric acid in the blood. In words: Hypouricemic effect (normal rats), 2 hours after oral administration. The conditions noted are these: 2 hours after administration.
Experimental: A test compound suspended in a 0.5% methylcellulose solution was administered to 8 to 9 week-old Sprague-Dawley male rats (Japan Charles River Co.) by oral gavage administration using a feeding needle. After the blood was collected from the tail vein at 2 hours after administration, the plasma was separated. The level of uric acid in the blood sample was measured by uricase method using an absorption spectrometer as well as a uric acid determination kit (L type Wako UA F: Wako Pure Chemical Industries, Ltd.). The percentage of hypouricemic effect was determined by the following expression: Percentage of hypouricemic effect (%)=(Level of uric acid of the control animal−Level of uric acid of the test compound-administered animal)×100/Level of uric acid of the control animal.
Data set [2] deals with level of uric acid in the plasma. In words: Hypouricemic effect (oxonic acid-induced hyperuricemic beagle dogs). Format: in vivo. Particulars: hyperuricemic beagle dog, oral, 10 mg/kg, 8 hours after administration. On the procedure: The hypouricemic effect was confirmed for the compounds (I) in oxonic acid-induced hyperuricmic beagle dog. […] Potassium oxonate (50 mg/kg) was subcutaneously administrated before and 4 hours after compound administration. After the blood was collected from the cephalic vein at 8 hours after administration, the plasma was separated. The level of uric acid in the plasma sample was measured by LC-MS/MS method and the percentage of hypouricemic effect was determined by the following expression: Percentage of hypouricemic effect (%)=(Level of uric acid of the control animal−Level of uric acid of the test compound-administered animal)×100/Level of uric acid of the control animal.

Data set [3] relates to level of uric acid in the blood. In words: Prolonged hypouricemic effect (normal rats), 24 hours after oral administration. The format is in vivo, Sprague-Dawley male rats. Particulars: 24 hours after administration. As to the method:
The crystal form A of the compound (II) was administered to Sprague-Dawley male rats in the similar manner as Example 5.
After the blood was collected from the tail vein 24 hours after administration, the plasma was separated. The level of uric acid in the blood was measured by an uricase method using an absorption spectrometer and a uric acid determination kit (L type Wako UA F: Wako Pure Chemical Industries, Ltd.). The percentage of hypouricemic effect was determined by the following expression: Percentage of hypouricemic effect=(Level of uric acid of the control animal−Level of uric acid of the test compound-administered animal)×100/Level of uric acid of the control animal.

The nature of data set [4]: Solubility into JP2 solution (pH 6.8). Format: physicochemical. On the procedure: The solubility of the compound (II) in JP2 solution (pH 6.8) was confirmed. A solution was prepared by mildly pulverizing the crystals A of the compound (II) in a mortar, and adding approximately 4 mg of the pulverized crystals to […] of JP2 solution while stirring at room temperature. The absorbance (At) of each solution at 280 nm was successively measured immediately after the addition of the crystals using an ultraviolet-visible absorbance measurement method and the solubility at each measurement time was determined by the following expression using the absorbance (As) of a standard solution at 280 mu determined in advance as an index. The measurement was continued until 120 minutes. Solubility=At/As×Cs (where Cs represents the concentration of a standard solution) • Measurement apparatus: μDISS Profiler manufactured by Pion Inc. • Stirring rate: 700 rpm • UV measurement wavelength: 280 nm • Measurement interval: Start of measurement to 1 minute: 3 seconds • 1 to 8 minutes: 20 seconds • 8 to 120 minutes: 2 minutes

In the case of `Cc1nc(-c2ccc(OCC(C)C)c(-n3cnnn3)c2)sc1C(=O)O` [compound (I), 4-methyl-2-[4-(2-methylpropoxy)-3-(1H-1,2,3,4-tetrazol-1-yl)phenyl]-1,3-thiazole-5-carboxylic acid], the “Percentage of hypouricemic effect” value in data set [1] (1 mg/kg) is listed as no less than 50%; in data set [1] (10 mg/kg), no less than 50%; in data set [3] (3 mg/kg), no less than 40%; in data set [3] (10 mg/kg), no less than 50%. Moreover, the hypouricemic effect result in data set [2] was “showed a hypouricemic effect”.
For `Cc1nc(-c2ccc(OCC(C)C)c(-n3cnnn3)c2)sc1C(=O)[O-].[Na+]` [compound (II), sodium 4-methyl-2-[4-(2-methylpropoxy)-3-(1H-1,2,3,4-tetrazol-1-yl)phenyl]-1,3-thiazole-5-carboxylate], the “Percentage of hypouricemic effect” value is no less than 50% in data set [1] (1 mg/kg), no less than 50% in data set [1] (10 mg/kg), no less than 40% in data set [3] (3 mg/kg) and no less than 50% in data set [3] (10 mg/kg). The “Precipitation / maintenance of dissolved state” value in data set [4] (JP2 solution pH 6.8, up to 120 minutes after the addition) is recorded as “no precipitation was observed”. Further, the “Time until total amount was dissolved” value in data set [4] (approximately 4 mg of pulverized crystals in JP2 solution pH 6.8, 700 rpm) is no more than 30 s. For the same compound, the solubility (in general, the concentration that dissolves in the medium under given conditions) at 120 minutes in data set [4] (aqueous buffer, thermodynamic from solid, JP2 solution pH 6.8, room temperature, at 120 minutes after the addition) stood at 184 µg/mL. In data set [4] (aqueous buffer, thermodynamic from solid, JP2 solution pH 6.8, room temperature, total amount dissolved within 30 seconds after the addition), the solubility at 30 seconds was found to be 187 µg/mL.
